# Source: patent US20100021918A1, “METHOD FOR ASSAYING ACTION OF ANTITUMOR AGENT USING SPLICING DEFECTS AS INDEX” (Eisai R&D Management Co., Ltd., priority 2007, published 2010)
# Test system: peripheral blood mononuclear cells (PBMC)
# Test: Microarray analysis (3), dose-dependent intron expression in PBMC at 3, 10, 30 nM, Table 5
# Assay type: cell-based, human
# Method: PBMC was suspended in RPMI1640 medium (containing 10% FBS, penicillin, and streptomycin) to 5×10^6 cells/ml and 1 ml of the suspension was plated per well of a 24-well plate. Immediately, 111 μl of 10 times-concentrated (8E,12E,14E)-7-((4-cycloheptylpiperazin-1-yl)carbonyl)oxy-3,6,16,21-tetrahydroxy-6,10,12,16,20-pentamethyl-18,19-epoxytricosa-8,12,14-trien-11-olide was added to the well (six wells per each concentration tested). The cells were then cultured in an incubator with 5% carbon dioxide gas at 37° C. Three hours later, the supernatant was collected and centrifuged at 1500 rpm for five minutes. TRI reagent (SIGMA) (1 ml) was added to each well of the plate from which the supernatant was removed to harvest the cells, which was added to the centrifuged pellet to dissolve. RNA was purified in accordance with the protocol of TRI reagent. RNA was further purified using RNeasy (QIAGEN) and, in accordance with the protocol, DNaseI was added to the samples during the procedure. Absorbance at 260 nm was measured to quantify an amount of RNA.
# Ribosomal RNA was removed from 1 μg of each total RNA of control cells (n=3) and cells with the treatment (n=3) using RiboMinus Human/Mouse Transcriptome Isolation Kit (Invitrogen). Single stranded cDNA synthesis, double stranded cDNA synthesis, cRNA synthesis, second single stranded cDNA synthesis, cDNA fragmentation, and cDNA labeling in order were carried out for total RNA from which ribosomal RNA was removed, using GeneChip Whole Transcript Sense Target Labeling and Control Reagents (Affymetrix) to make a cDNA probe. Subsequently, the cDNA probe was used for hybridization with Human Exon 1.0 ST Array (Affymetrix). The array was washed and stained, and luminescence intensity was measured by a scanner.
# The expression level of the probe set and the gene was quantified by using Expression Console Ver. 1.0 (Affymetrix) with Summarization Method and Normalization Method being set to “Median polish as used in RMA” and “None”, respectively. The expression level of the probe was normalized with that of the gene.
# Probe sets showing that the normalized change in the level expression of the probe set in the group with the treatment at 30 nM was more than 5 times; the expression level of the probe set and the gene in the group with the treatment at 30 nM was more than 100; and probe set annotation was “extended, full, free”, were picked out. Regression analysis was performed with the probe sets extracted for the control group, the group with the treatment at 3 nM, the group with the treatment at 10 nM, and the group with the treatment at 30 nM to determine a p and q value for the slope of regression formula. A gene containing the probe sets with the q value of less than 5% was determined as a candidate gene with increased expression level of the intron regions (Table 5).
# In Table 5, for the gene evaluated, gene name (Gene Name), abbreviated name (Gene Symbol), accession number (Accession), alias name (Synonym), transcription cluster number in Human Exon 1.0 ST Array (Human Exon 1.0 ST Array Transcription Cluster ID), chromosome number (Chromosome), type of strand (Strand), start region (Start), stop region (Stop), and change in expression level per 1 nM (Fold Change/nM) were respectively shown.
smiles,measurement,setting,value
"CCC(O)C(C)C1OC1CC(C)(O)/C=C/C=C(\C)C1OC(=O)CC(O)CCC(C)(O)C(OC(=O)N2CCN(C3CCCCCC3)CC2)/C=C/C1C (stereo not shown) [E7107, (8E,12E,14E)-7-((4-cycloheptylpiperazin-1-yl)carbonyl)oxy-3,6,16,21-tetrahydroxy-6,10,12,16,20-pentamethyl-18,19-epoxytricosa-8,12,14-trien-11-olide]",Fold Change/nM,"gene ABCC1, intron expression, 3, 10, 30 nM",1.05 nM⁻¹
same,Fold Change/nM,"gene ADAR introns, regression over control, 3, 10, 30 nM",1.05 nM⁻¹
same,Fold Change/nM,"gene AMPD3 // PPARA // TRMU // GTSE1, intron expression, 3, 10, 30 nM",1.05 nM⁻¹
same,Fold Change/nM,"gene ANKH introns, regression over control, 3, 10, 30 nM",1.05 nM⁻¹
same,Fold Change/nM,"gene ARF1 introns, regression over control, 3, 10, 30 nM",1.05 nM⁻¹
same,Fold Change/nM,"gene ARHGDIB introns, regression over control, 3, 10, 30 nM",1.05 nM⁻¹
same,Fold Change/nM,"gene ATP8A1 // PCLKC, intron expression, 3, 10, 30 nM",1.05 nM⁻¹
same,Fold Change/nM,"gene AUTS2, intron expression, 3, 10, 30 nM",1.05 nM⁻¹
same,Fold Change/nM,"gene BAT2D1, intron expression, 3, 10, 30 nM",1.05 nM⁻¹
same,Fold Change/nM,"gene BCL9L, intron expression, 3, 10, 30 nM",1.05 nM⁻¹
same,Fold Change/nM,"gene C3orf63, intron expression, 3, 10, 30 nM",1.05 nM⁻¹
same,Fold Change/nM,"gene C13orf18, intron expression, 3, 10, 30 nM",1.05 nM⁻¹
same,Fold Change/nM,"gene C22orf28, intron expression, 3, 10, 30 nM",1.05 nM⁻¹
same,Fold Change/nM,"gene CALR, intron expression, 3, 10, 30 nM",1.05 nM⁻¹
same,Fold Change/nM,"gene CAND1 introns, regression over control, 3, 10, 30 nM",1.05 nM⁻¹
same,Fold Change/nM,"gene CCND2 introns, regression over control, 3, 10, 30 nM",1.05 nM⁻¹
same,Fold Change/nM,"gene CDC2L5, intron expression, 3, 10, 30 nM",1.05 nM⁻¹
same,Fold Change/nM,"gene CEP170 // CEP170L, intron expression, 3, 10, 30 nM",1.05 nM⁻¹
same,Fold Change/nM,"gene CHST11, intron expression, 3, 10, 30 nM",1.05 nM⁻¹
same,Fold Change/nM,"gene DDEF1, intron expression, 3, 10, 30 nM",1.05 nM⁻¹
same,Fold Change/nM,"gene DDX3Y introns, regression over control, 3, 10, 30 nM",1.05 nM⁻¹
same,Fold Change/nM,"gene DDX18 // WNT8B, intron expression, 3, 10, 30 nM",1.05 nM⁻¹
same,Fold Change/nM,"gene DENND4A introns, regression over control, 3, 10, 30 nM",1.05 nM⁻¹
same,Fold Change/nM,"gene DPF2, intron expression, 3, 10, 30 nM",1.05 nM⁻¹
same,Fold Change/nM,"gene DRAM, intron expression, 3, 10, 30 nM",1.05 nM⁻¹
same,Fold Change/nM,"gene DUSP16, intron expression, 3, 10, 30 nM",1.05 nM⁻¹
same,Fold Change/nM,"gene EDD1, intron expression, 3, 10, 30 nM",1.05 nM⁻¹
same,Fold Change/nM,"gene EIF3S10, intron expression, 3, 10, 30 nM",1.05 nM⁻¹
same,Fold Change/nM,"gene EIF4A1 // SENP3, intron expression, 3, 10, 30 nM",1.05 nM⁻¹
same,Fold Change/nM,"gene FBXO11, intron expression, 3, 10, 30 nM",1.05 nM⁻¹
same,Fold Change/nM,"gene FNTA, intron expression, 3, 10, 30 nM",1.05 nM⁻¹
same,Fold Change/nM,"gene FOXK2, intron expression, 3, 10, 30 nM",1.05 nM⁻¹
same,Fold Change/nM,"gene FOXO3A, intron expression, 3, 10, 30 nM",1.05 nM⁻¹
same,Fold Change/nM,"gene GAK, intron expression, 3, 10, 30 nM",1.05 nM⁻¹
same,Fold Change/nM,"gene GDI1 introns, regression over control, 3, 10, 30 nM",1.05 nM⁻¹
same,Fold Change/nM,"gene GNA12, intron expression, 3, 10, 30 nM",1.05 nM⁻¹
same,Fold Change/nM,"gene GP5 // ZNF394, intron expression, 3, 10, 30 nM",1.05 nM⁻¹
same,Fold Change/nM,"gene GTF3C4 introns, regression over control, 3, 10, 30 nM",1.05 nM⁻¹
same,Fold Change/nM,"gene GTPBP4, intron expression, 3, 10, 30 nM",1.05 nM⁻¹
same,Fold Change/nM,"gene IDI1 introns, regression over control, 3, 10, 30 nM",1.05 nM⁻¹
same,Fold Change/nM,"gene IFNGR1 introns, regression over control, 3, 10, 30 nM",1.05 nM⁻¹
same,Fold Change/nM,"gene KIAA0226 introns, regression over control, 3, 10, 30 nM",1.05 nM⁻¹
same,Fold Change/nM,"gene KLF9 introns, regression over control, 3, 10, 30 nM",1.05 nM⁻¹
same,Fold Change/nM,"gene LDLR introns, regression over control, 3, 10, 30 nM",1.05 nM⁻¹
same,Fold Change/nM,"gene MAPK6, intron expression, 3, 10, 30 nM",1.05 nM⁻¹
same,Fold Change/nM,"gene MKI67IP introns, regression over control, 3, 10, 30 nM",1.05 nM⁻¹
same,Fold Change/nM,"gene MLL3 // ADAMTS2 // LRRK1 // BAGE3 introns, regression over control, 3, 10, 30 nM",1.05 nM⁻¹
same,Fold Change/nM,"gene MLLT3, intron expression, 3, 10, 30 nM",1.05 nM⁻¹
same,Fold Change/nM,"gene MTMR6 introns, regression over control, 3, 10, 30 nM",1.05 nM⁻¹
same,Fold Change/nM,"gene MYD88, intron expression, 3, 10, 30 nM",1.05 nM⁻¹
same,Fold Change/nM,"gene NFKB2, intron expression, 3, 10, 30 nM",1.05 nM⁻¹
same,Fold Change/nM,"gene NIPBL // NRBP1 introns, regression over control, 3, 10, 30 nM",1.05 nM⁻¹
same,Fold Change/nM,"gene NPAT, intron expression, 3, 10, 30 nM",1.05 nM⁻¹
same,Fold Change/nM,"gene NR3C1, intron expression, 3, 10, 30 nM",1.05 nM⁻¹
same,Fold Change/nM,"gene PAK2, intron expression, 3, 10, 30 nM",1.05 nM⁻¹
same,Fold Change/nM,"gene PJA2 introns, regression over control, 3, 10, 30 nM",1.05 nM⁻¹
same,Fold Change/nM,"gene PLEK, intron expression, 3, 10, 30 nM",1.05 nM⁻¹
same,Fold Change/nM,"gene PLEKHM1, intron expression, 3, 10, 30 nM",1.05 nM⁻¹
same,Fold Change/nM,"gene POLR3E introns, regression over control, 3, 10, 30 nM",1.05 nM⁻¹
same,Fold Change/nM,"gene PPP1CB, intron expression, 3, 10, 30 nM",1.05 nM⁻¹
same,Fold Change/nM,"gene PRKAR1A, intron expression, 3, 10, 30 nM",1.05 nM⁻¹
same,Fold Change/nM,"gene PRPF4B, intron expression, 3, 10, 30 nM",1.05 nM⁻¹
same,Fold Change/nM,"gene PSEN1, intron expression, 3, 10, 30 nM",1.05 nM⁻¹
same,Fold Change/nM,"gene PSMD11, intron expression, 3, 10, 30 nM",1.05 nM⁻¹
same,Fold Change/nM,"gene RANGAP1, intron expression, 3, 10, 30 nM",1.05 nM⁻¹
same,Fold Change/nM,"gene RARA, intron expression, 3, 10, 30 nM",1.05 nM⁻¹
same,Fold Change/nM,"gene RBM23 // C9orf102, intron expression, 3, 10, 30 nM",1.05 nM⁻¹
same,Fold Change/nM,"gene SETD5, intron expression, 3, 10, 30 nM",1.05 nM⁻¹
same,Fold Change/nM,"gene SF3B1, intron expression, 3, 10, 30 nM",1.05 nM⁻¹
same,Fold Change/nM,"gene SF3B2, intron expression, 3, 10, 30 nM",1.05 nM⁻¹
same,Fold Change/nM,"gene SFPQ, intron expression, 3, 10, 30 nM",1.05 nM⁻¹
same,Fold Change/nM,"gene SFRS2IP introns, regression over control, 3, 10, 30 nM",1.05 nM⁻¹
same,Fold Change/nM,"gene SFRS3, intron expression, 3, 10, 30 nM",1.05 nM⁻¹
same,Fold Change/nM,"gene SLFN11, intron expression, 3, 10, 30 nM",1.05 nM⁻¹
same,Fold Change/nM,"gene ST8SIA4 introns, regression over control, 3, 10, 30 nM",1.05 nM⁻¹
same,Fold Change/nM,"gene STX6, intron expression, 3, 10, 30 nM",1.05 nM⁻¹
same,Fold Change/nM,"gene SUPV3L1 introns, regression over control, 3, 10, 30 nM",1.05 nM⁻¹
same,Fold Change/nM,"gene THRAP1 introns, regression over control, 3, 10, 30 nM",1.05 nM⁻¹
same,Fold Change/nM,"gene TLR4, intron expression, 3, 10, 30 nM",1.05 nM⁻¹
same,Fold Change/nM,"gene TMEM1, intron expression, 3, 10, 30 nM",1.05 nM⁻¹
same,Fold Change/nM,"gene TMEM2, intron expression, 3, 10, 30 nM",1.05 nM⁻¹
same,Fold Change/nM,"gene TNFSF8, intron expression, 3, 10, 30 nM",1.05 nM⁻¹
same,Fold Change/nM,"gene TRAF3 introns, regression over control, 3, 10, 30 nM",1.05 nM⁻¹
same,Fold Change/nM,"gene UBXD2 introns, regression over control, 3, 10, 30 nM",1.05 nM⁻¹
same,Fold Change/nM,"gene USP4, intron expression, 3, 10, 30 nM",1.05 nM⁻¹
same,Fold Change/nM,"gene USP38, intron expression, 3, 10, 30 nM",1.05 nM⁻¹
same,Fold Change/nM,"gene USP47 introns, regression over control, 3, 10, 30 nM",1.05 nM⁻¹
same,Fold Change/nM,"gene YME1L1, intron expression, 3, 10, 30 nM",1.05 nM⁻¹
same,Fold Change/nM,"gene ZNF267, intron expression, 3, 10, 30 nM",1.05 nM⁻¹
same,Fold Change/nM,"introns of gene ACSL1, regression over control, 3, 10, 30 nM",1.07 nM⁻¹
same,Fold Change/nM,"introns of gene BASP1, regression over control, 3, 10, 30 nM",1.07 nM⁻¹
same,Fold Change/nM,"introns of gene CD2, regression over control, 3, 10, 30 nM",1.07 nM⁻¹
same,Fold Change/nM,"introns of gene EIF2C2, regression over control, 3, 10, 30 nM",1.07 nM⁻¹
same,Fold Change/nM,"introns of gene GCH1, regression over control, 3, 10, 30 nM",1.07 nM⁻¹
same,Fold Change/nM,"introns of gene ITGAV, regression over control, 3, 10, 30 nM",1.08 nM⁻¹
same,Fold Change/nM,"introns of gene NFKB1, regression over control, 3, 10, 30 nM",1.07 nM⁻¹
same,Fold Change/nM,"introns of gene NUMB, regression over control, 3, 10, 30 nM",1.07 nM⁻¹
same,Fold Change/nM,"introns of gene PRKCE, regression over control, 3, 10, 30 nM",1.07 nM⁻¹
same,Fold Change/nM,"introns of gene PSMD3, regression over control, 3, 10, 30 nM",1.07 nM⁻¹
same,Fold Change/nM,"introns of gene QKI, regression over control, 3, 10, 30 nM",1.07 nM⁻¹
